{"source": "patent US20100286038A1", "about": "“FORMULATION CONTAINING CYCLIN-DEPENDENT KINASE INHIBITING COMPOUND AND METHOD OF TREATING TUMORS USING THE SAME” (priority 2007, published 2010)", "key": {"[1]": {"test_system": "A2780 ovarian carcinoma xenografts", "test": "A2780 xenograft ovarian cancer model", "type": "in vivo, nude mice"}, "[2]": {"settings": "40 mg/kg once per day for five days; blood on days 1 and 7 following the last dose", "protocol": "The formulation was administered to BALB/c mice at a dosage level of 40 mg/kg once per day for five days. Blood samples were obtained on days 1 and 7 following the last dose and analyzed on an Advia 120 hematology analyzer immediately after diluting 1:5 in PBS. A full differential blood count was performed, including red blood cell analysis (including reticulocyte, variant count, and hemoglobin analyses), white blood cell analysis (including differential lineage counts and peroxidase staining) and a thrombopoiesis analysis."}, "CDK6/cyclinD3": {"target": "T1, CDK6/cyclinD3 (Homo sapiens, UniProt Q00534)", "T1 construct": "purchased Upstate", "T1 sequence (Q00534 whole entry, species assumed)": "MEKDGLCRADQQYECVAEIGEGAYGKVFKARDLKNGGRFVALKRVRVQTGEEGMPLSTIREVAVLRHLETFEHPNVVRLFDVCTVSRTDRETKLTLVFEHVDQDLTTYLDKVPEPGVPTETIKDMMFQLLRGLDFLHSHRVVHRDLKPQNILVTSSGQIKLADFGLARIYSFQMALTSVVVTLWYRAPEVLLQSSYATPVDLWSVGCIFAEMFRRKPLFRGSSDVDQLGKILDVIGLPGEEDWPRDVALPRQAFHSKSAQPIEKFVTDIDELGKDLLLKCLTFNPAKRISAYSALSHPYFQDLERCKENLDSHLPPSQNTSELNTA", "T1 sequence (P30281 whole entry partner, species assumed)": "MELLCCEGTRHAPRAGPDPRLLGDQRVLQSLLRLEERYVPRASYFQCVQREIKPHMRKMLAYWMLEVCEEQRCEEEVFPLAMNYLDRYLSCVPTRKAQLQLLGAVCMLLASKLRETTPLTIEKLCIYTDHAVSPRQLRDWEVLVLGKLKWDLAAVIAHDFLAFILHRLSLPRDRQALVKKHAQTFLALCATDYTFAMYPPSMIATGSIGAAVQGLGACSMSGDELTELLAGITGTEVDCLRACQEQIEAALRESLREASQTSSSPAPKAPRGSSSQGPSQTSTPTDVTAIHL", "test": "Upstate kinase Profiler counter-screening", "type": "biochemical", "settings": "at 1 μM"}, "CDK7/cyclinH/MAT1": {"target": "T2, CDK7/cyclinH/MAT1 (Homo sapiens, UniProt P50613)", "T2 construct": "purchased Upstate", "test": "Upstate kinase Profiler counter-screening", "type": "biochemical"}, "Fes": {"target": "T3, Fes (Homo sapiens, UniProt P07332)", "T3 construct": "purchased Upstate", "T3 sequence (P07332 whole entry, species assumed)": "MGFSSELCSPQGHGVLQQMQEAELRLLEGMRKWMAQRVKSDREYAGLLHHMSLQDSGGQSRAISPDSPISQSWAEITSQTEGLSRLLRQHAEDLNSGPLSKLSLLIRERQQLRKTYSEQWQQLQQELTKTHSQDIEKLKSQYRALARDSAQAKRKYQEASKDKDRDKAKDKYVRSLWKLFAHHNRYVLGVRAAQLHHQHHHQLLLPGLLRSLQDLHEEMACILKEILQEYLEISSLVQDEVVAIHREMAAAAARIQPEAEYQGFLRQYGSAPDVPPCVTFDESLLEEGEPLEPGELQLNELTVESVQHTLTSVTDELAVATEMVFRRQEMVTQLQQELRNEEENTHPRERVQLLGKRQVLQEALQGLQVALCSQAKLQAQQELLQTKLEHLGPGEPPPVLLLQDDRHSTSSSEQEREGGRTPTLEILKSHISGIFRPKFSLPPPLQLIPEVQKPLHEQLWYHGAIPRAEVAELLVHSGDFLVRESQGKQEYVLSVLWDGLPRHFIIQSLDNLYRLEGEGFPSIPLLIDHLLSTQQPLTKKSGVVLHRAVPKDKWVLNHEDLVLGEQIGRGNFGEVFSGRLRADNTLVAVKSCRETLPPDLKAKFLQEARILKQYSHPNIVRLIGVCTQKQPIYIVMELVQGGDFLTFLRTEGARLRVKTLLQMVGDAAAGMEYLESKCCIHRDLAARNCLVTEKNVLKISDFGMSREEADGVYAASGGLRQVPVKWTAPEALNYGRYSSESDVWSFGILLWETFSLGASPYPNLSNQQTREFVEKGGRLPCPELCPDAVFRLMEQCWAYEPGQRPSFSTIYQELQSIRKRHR", "test": "Upstate kinase Profiler counter-screening", "type": "biochemical"}, "Lyn": {"target": "T4, Lyn (Homo sapiens, UniProt P07948)", "T4 construct": "purchased Upstate", "T4 sequence (P07948 whole entry, species assumed)": "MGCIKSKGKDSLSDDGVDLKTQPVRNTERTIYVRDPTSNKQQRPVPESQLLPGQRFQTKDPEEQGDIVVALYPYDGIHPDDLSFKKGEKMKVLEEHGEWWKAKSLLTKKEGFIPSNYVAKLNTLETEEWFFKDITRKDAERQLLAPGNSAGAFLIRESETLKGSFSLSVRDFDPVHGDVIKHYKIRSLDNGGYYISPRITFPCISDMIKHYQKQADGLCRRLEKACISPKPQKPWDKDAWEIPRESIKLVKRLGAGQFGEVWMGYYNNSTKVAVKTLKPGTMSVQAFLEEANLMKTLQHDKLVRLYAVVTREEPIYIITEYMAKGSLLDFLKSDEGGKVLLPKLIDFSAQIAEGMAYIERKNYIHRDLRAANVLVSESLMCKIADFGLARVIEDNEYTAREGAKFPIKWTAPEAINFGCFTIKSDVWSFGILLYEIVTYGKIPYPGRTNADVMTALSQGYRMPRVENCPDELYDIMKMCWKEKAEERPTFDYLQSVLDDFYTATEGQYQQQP", "test": "Upstate kinase Profiler counter-screening", "type": "biochemical"}, "MSK1": {"target": "T5, MSK1 (Homo sapiens, UniProt O75582)", "T5 construct": "purchased Upstate", "T5 sequence (O75582 whole entry, species assumed)": "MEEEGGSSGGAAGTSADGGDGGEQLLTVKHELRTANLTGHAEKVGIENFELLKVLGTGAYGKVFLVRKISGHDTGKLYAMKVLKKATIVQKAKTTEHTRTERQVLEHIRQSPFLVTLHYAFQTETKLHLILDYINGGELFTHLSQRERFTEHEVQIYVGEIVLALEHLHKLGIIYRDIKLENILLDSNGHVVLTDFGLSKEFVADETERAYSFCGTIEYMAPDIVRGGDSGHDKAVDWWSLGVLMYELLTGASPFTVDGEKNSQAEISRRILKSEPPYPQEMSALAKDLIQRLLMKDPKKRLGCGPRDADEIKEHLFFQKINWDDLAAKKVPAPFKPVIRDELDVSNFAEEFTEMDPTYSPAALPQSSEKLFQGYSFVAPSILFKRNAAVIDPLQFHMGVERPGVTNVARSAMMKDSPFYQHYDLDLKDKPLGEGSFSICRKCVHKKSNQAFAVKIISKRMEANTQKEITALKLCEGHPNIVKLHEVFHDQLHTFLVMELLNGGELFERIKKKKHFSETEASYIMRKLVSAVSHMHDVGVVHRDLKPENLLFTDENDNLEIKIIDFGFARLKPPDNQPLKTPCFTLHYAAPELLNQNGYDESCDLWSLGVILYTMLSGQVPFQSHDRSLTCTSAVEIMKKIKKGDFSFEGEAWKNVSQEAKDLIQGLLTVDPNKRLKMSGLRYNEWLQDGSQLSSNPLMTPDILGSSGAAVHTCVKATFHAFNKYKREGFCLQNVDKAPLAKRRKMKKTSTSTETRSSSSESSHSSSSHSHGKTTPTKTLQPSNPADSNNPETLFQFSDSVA", "test": "Upstate kinase Profiler counter-screening", "type": "biochemical"}, "PKCα": {"target": "T6, PKCα (Homo sapiens, UniProt P17252)", "T6 construct": "purchased Upstate", "test": "Upstate kinase Profiler counter-screening", "type": "biochemical"}, "PKCβII": {"target": "T7, PKCβII (Homo sapiens, UniProt P05771)", "T7 construct": "purchased Upstate", "T7 sequence (P05771 1-673 isoform P05771-2)": "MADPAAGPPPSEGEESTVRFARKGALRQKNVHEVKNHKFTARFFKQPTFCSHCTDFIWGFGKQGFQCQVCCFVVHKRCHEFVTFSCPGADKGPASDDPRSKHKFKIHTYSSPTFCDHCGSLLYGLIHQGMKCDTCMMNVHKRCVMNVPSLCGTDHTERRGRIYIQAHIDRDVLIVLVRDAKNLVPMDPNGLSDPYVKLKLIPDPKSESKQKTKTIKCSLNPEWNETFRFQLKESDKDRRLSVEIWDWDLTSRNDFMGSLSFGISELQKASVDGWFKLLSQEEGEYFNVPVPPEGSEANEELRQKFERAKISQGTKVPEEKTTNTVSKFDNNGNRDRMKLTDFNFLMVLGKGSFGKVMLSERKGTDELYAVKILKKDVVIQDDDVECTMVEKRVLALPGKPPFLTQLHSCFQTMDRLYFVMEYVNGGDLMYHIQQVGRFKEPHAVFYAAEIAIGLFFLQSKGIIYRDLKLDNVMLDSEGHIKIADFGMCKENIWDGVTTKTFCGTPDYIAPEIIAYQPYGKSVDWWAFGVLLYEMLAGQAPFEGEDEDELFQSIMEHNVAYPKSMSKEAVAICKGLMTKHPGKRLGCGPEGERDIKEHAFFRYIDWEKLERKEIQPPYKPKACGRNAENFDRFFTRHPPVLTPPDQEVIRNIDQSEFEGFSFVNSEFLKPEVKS", "test": "Upstate kinase Profiler counter-screening", "type": "biochemical"}, "PKCε": {"target": "T8, PKCε (Homo sapiens, UniProt Q02156)", "T8 construct": "purchased Upstate", "T8 sequence (Q02156 1-737)": "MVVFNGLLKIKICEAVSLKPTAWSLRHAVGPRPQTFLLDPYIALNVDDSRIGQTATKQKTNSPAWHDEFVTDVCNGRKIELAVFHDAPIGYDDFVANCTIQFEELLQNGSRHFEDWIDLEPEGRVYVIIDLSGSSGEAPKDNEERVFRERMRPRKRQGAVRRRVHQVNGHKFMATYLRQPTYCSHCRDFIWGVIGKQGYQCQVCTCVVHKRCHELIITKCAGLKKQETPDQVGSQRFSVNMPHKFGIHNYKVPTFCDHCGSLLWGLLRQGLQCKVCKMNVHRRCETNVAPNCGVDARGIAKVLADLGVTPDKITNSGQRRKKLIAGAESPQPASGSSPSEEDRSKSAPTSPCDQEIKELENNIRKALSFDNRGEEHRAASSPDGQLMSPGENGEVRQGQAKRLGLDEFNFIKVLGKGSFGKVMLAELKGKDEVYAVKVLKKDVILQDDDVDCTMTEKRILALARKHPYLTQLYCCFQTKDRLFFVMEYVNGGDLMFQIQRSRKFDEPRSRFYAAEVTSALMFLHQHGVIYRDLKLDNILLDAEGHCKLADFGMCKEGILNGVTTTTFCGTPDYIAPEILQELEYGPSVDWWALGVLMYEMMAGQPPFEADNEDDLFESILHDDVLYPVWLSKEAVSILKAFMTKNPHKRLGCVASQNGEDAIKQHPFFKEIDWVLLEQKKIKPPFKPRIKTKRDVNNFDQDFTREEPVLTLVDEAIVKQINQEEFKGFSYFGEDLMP", "test": "Upstate kinase Profiler counter-screening", "type": "biochemical"}, "Rsk2": {"target": "T9, Rsk2 (Homo sapiens, UniProt P51812)", "T9 construct": "purchased Upstate", "T9 sequence (P51812 whole entry, species assumed)": "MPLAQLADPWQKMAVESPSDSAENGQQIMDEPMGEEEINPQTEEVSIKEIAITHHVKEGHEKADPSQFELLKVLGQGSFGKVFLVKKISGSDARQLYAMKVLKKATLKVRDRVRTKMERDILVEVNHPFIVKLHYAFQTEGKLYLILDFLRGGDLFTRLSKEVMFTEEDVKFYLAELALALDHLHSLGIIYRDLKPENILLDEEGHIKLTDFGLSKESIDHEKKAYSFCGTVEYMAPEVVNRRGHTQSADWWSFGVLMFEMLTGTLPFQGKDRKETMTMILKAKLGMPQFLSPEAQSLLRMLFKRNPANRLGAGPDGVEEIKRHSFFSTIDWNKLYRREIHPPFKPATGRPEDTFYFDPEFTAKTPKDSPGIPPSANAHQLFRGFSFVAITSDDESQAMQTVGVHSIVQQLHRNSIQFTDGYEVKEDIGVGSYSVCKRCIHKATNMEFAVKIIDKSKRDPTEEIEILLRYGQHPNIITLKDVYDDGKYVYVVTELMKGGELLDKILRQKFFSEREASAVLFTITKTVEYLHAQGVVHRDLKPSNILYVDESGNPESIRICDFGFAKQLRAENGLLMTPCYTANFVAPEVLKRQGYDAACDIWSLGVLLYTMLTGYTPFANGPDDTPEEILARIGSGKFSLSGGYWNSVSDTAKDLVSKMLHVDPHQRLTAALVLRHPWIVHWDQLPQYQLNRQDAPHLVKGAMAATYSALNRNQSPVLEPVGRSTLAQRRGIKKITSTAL", "test": "Upstate kinase Profiler counter-screening", "type": "biochemical"}, "[3]": {"test_system": "lymphocyte proliferation (BrdU incorporation)", "protocol": "The samples were collected in tubes containing heparin and shipped to a central laboratory for evaluation. Whole blood from each sample was diluted 1:5 in complete RPMI media and 200 microliter aliquots were added to wells of a 96-well plate. Samples from each time point were either stimulated with PHA (0.01 mg/ml final concentration), or not stimulated. […] Samples were stained with FITC conjugated anti-CD45 antibody. RBC's were lysed and the remaining cells were fixed, permeabilized and treated with DNase. The samples were then incubated with an anti-BrdU antibody. Washed cells were re-suspended and the CD45 and BrdU-positive and −negative populations were detected by FACS. FIGS. 10, 12A, and 12B show the percent of BrdU incorporation for samples taken for various doses."}, "[4]": {"test_system": "various human tumor cell lines", "settings": "read-out: Mean In-Cell IC50, 24 hours exposure", "quoted_text": "(§1) The level of activation of apoptosis was also assessed by determining the levels of activated caspase in each cell line. […] The cells were evaluated fluorometrically for levels of activated caspase six hours post washout. Samples of each cell line were also subjected to SDS-PAGE and subsequently immunoblotted for p85 PARP caspase cleavage product."}, "[5]": {"test_system": "various human tumor cell lines", "settings": "for Caspase Activation (number of sensitive cell lines out of total tested/single exposure): two hour exposure to less than 0.1 micromolar", "quoted_text": "as §1"}}, "note": "Where two headings read alike, the source gives them in different places.", "data": [{"smiles": "CCc1cnn2c(NCc3ccc[n+]([O-])c3)cc(N3CCCC[C@H]3CCO)nc12", "note": "[Formula II]", "values": [{"measurement": "tumor growth inhibition", "setting": "[1]; 8 mg/kg IP daily for 10 days", "value": 70, "unit": "%"}, {"measurement": "tumor growth inhibition", "setting": "[1]; 16 mg/kg IP daily for 10 days", "value": 70, "unit": "%"}, {"measurement": "tumor growth inhibition", "setting": "[1]; 32 mg/kg IP daily for 10 days", "value": 90, "unit": "%"}, {"measurement": "tumor growth inhibition", "setting": "[1]; 48 mg/kg IP daily for 10 days", "value": 96, "unit": "%"}, {"measurement": "50% inhibition level (minimum effective dose)", "setting": "[1]; IP daily for 10 days", "value": "less than 8 mg/kg"}, {"measurement": "MED", "setting": "[1]; once per day IP for 7 days, dose inducing at least 50% inhibition of tumor growth", "value": 5, "unit": "mg/kg"}, {"measurement": "effect on platelets or red blood cells", "setting": "[2]", "value": "No effect"}, {"measurement": "% remaining activity", "setting": "CDK6/cyclinD3", "value": 12, "unit": "%"}, {"measurement": "% remaining activity", "setting": "CDK7/cyclinH/MAT1; at 1 μM", "value": 7, "unit": "%"}, {"measurement": "% remaining activity", "setting": "CDK7/cyclinH/MAT1; at 10 μM", "value": 4, "unit": "%"}, {"measurement": "% remaining activity", "setting": "Fes; at 1 μM", "value": 87, "unit": "%"}, {"measurement": "% remaining activity", "setting": "Fes; at 10 μM", "value": 91, "unit": "%"}, {"measurement": "% remaining activity", "setting": "Lyn; at 1 μM", "value": 108, "unit": "%"}, {"measurement": "% remaining activity", "setting": "Lyn; at 10 μM", "value": 110, "unit": "%"}, {"measurement": "% remaining activity", "setting": "MSK1; at 1 μM", "value": 94, "unit": "%"}, {"measurement": "% remaining activity", "setting": "MSK1; at 10 μM", "value": 97, "unit": "%"}, {"measurement": "% remaining activity", "setting": "PKCα; at 1 μM", "value": 96, "unit": "%"}, {"measurement": "% remaining activity", "setting": "PKCα; at 10 μM", "value": 94, "unit": "%"}, {"measurement": "% remaining activity", "setting": "PKCβII; at 1 μM", "value": 110, "unit": "%"}, {"measurement": "% remaining activity", "setting": "PKCβII; at 10 μM", "value": 113, "unit": "%"}, {"measurement": "% remaining activity", "setting": "PKCε; at 1 μM", "value": 93, "unit": "%"}, {"measurement": "% remaining activity", "setting": "PKCε; at 10 μM", "value": 88, "unit": "%"}, {"measurement": "% remaining activity", "setting": "Rsk2; at 1 μM", "value": 104, "unit": "%"}, {"measurement": "% remaining activity", "setting": "Rsk2; at 10 μM", "value": 76, "unit": "%"}, {"measurement": "% BrdU incorporated at 8 hrs post-infusion", "setting": "[3]; Patient A, 1.85 mg/M2, Pre-Dose 28", "value": 65, "unit": "%"}, {"measurement": "% BrdU incorporated at 8 hrs post-infusion", "setting": "[3]; Patient B, 3.7 mg/M2, Pre-Dose 10", "value": 13, "unit": "%"}, {"measurement": "% BrdU incorporated at 8 hrs post-infusion", "setting": "[3]; Patient C, 7.4 mg/M2, Pre-Dose 51", "value": 11, "unit": "%"}, {"measurement": "% BrdU incorporated at 8 hrs post-infusion", "setting": "[3]; Patient F, 50 mg/M2, Pre-Dose 33", "value": 1, "unit": "%"}, {"measurement": "% BrdU incorporated at 8 hrs post-infusion", "setting": "[3]; Patient G, 58 mg/M2, Pre-Dose 23", "value": 0.7, "unit": "%"}, {"measurement": "% BrdU incorporated at 8 hrs post-infusion", "setting": "[3]; Patient H, 41.4 mg/M2, Pre-Dose 41", "value": 45, "unit": "%"}, {"measurement": "body-weight loss over the course of the experiment", "setting": "maximum dosage level (48 mg/kg IP daily for 10 days)", "value": "about 5%"}, {"measurement": "MTD", "setting": "once per day IP for 7 days, dose inducing 20% loss of body weight", "value": 60, "unit": "mg/kg"}, {"measurement": "IC50", "setting": "[4]; Bladder", "value": 10, "unit": "nM"}, {"measurement": "IC50", "setting": "[4]; Breast", "value": 8, "unit": "nM"}, {"measurement": "IC50", "setting": "[4]; Colon", "value": 17, "unit": "nM"}, {"measurement": "IC50", "setting": "[4]; Leukemia", "value": 6, "unit": "nM"}, {"measurement": "IC50", "setting": "[4]; Liver", "value": 8, "unit": "nM"}, {"measurement": "IC50", "setting": "[4]; Lymphoma (NHL)", "value": 7, "unit": "nM"}, {"measurement": "IC50", "setting": "[4]; Mantle Cell lymphoma", "value": 7, "unit": "nM"}, {"measurement": "IC50", "setting": "[4]; Melanoma", "value": 9, "unit": "nM"}, {"measurement": "IC50", "setting": "[4]; NSCLC", "value": 14, "unit": "nM"}, {"measurement": "IC50", "setting": "[4]; Ovarian", "value": 14, "unit": "nM"}, {"measurement": "IC50", "setting": "[4]; Pancreatic", "value": 15, "unit": "nM"}, {"measurement": "IC50", "setting": "[4]; Prostate", "value": 12, "unit": "nM"}, {"measurement": "IC50", "setting": "[4]; SCLC", "value": 6, "unit": "nM"}, {"measurement": "Caspase Activation (number of sensitive cell lines out of total tested/single exposure)", "setting": "[5]; Bladder", "value": "1 of 2"}, {"measurement": "Caspase Activation (number of sensitive cell lines out of total tested/single exposure)", "setting": "[5]; Breast", "value": "6 of 7"}, {"measurement": "Caspase Activation (number of sensitive cell lines out of total tested/single exposure)", "setting": "[5]; Colon", "value": "5 of 9"}, {"measurement": "Caspase Activation (number of sensitive cell lines out of total tested/single exposure)", "setting": "[5]; Leukemia", "value": "5 of 6"}, {"measurement": "Caspase Activation (number of sensitive cell lines out of total tested/single exposure)", "setting": "[5]; Liver", "value": "2 of 2"}, {"measurement": "Caspase Activation (number of sensitive cell lines out of total tested/single exposure)", "setting": "[5]; Lymphoma (NHL)", "value": "8 of 8"}, {"measurement": "Caspase Activation (number of sensitive cell lines out of total tested/single exposure)", "setting": "[5]; Mantle Cell lymphoma", "value": "3 of 4"}, {"measurement": "Caspase Activation (number of sensitive cell lines out of total tested/single exposure)", "setting": "[5]; Melanoma", "value": "9 of 9"}, {"measurement": "Caspase Activation (number of sensitive cell lines out of total tested/single exposure)", "setting": "[5]; NSCLC", "value": "8 of 9"}, {"measurement": "Caspase Activation (number of sensitive cell lines out of total tested/single exposure)", "setting": "[5]; Ovarian", "value": "5 of 7"}, {"measurement": "Caspase Activation (number of sensitive cell lines out of total tested/single exposure)", "setting": "[5]; Pancreatic", "value": "11 of 15"}, {"measurement": "Caspase Activation (number of sensitive cell lines out of total tested/single exposure)", "setting": "[5]; Prostate", "value": "4 of 5"}, {"measurement": "Caspase Activation (number of sensitive cell lines out of total tested/single exposure)", "setting": "[5]; SCLC", "value": "2 of 6"}, {"measurement": "share of cell lines tested with caspase activation and apoptosis detected", "setting": "[5]; single exposure", "value": "over 85%"}]}]}
